Measured values: ChEMBL document CHEMBL4393710, “Discovery of Dioxino[2,3-f]quinazoline derivative VEGFR-2 inhibitors exerting significant antipro-liferative activity in HUVECs and mice” (Eur J Med Chem, 2019)

Assays:
HEK293 = assay: Antiproliferative activity against HEK293 cells incubated for 72 hrs by CCK8 assay; settings: Homo sapiens, HEK293, 72 h
L02 = assay: Antiproliferative activity against human LO2 cells incubated for 72 hrs by CCK8 assay; settings: L02, 72 h
HUVEC = assay: Inhibition of VEGF-induced cell proliferation of HUVEC incubated for 72 hrs by CCK8 assay; settings: Homo sapiens
[1] = target: Vascular endothelial growth factor receptor 2 (Homo sapiens, UniProt P35968); assay: Inhibition of human N-terminal GST-tagged VEGFR2 cytoplasmic domain (790 to 1356 residues) expressed in baculovirus expression system using Ulight-JAK-1(Tyr1023) peptide as substrate preincubated for 30 mins followed by substrate addition and measured after 60 mins by spectrometric method
SMMC-7721 [2] = assay: Antiproliferative activity against human SMMC7721 cells incubated for 72 hrs by CCK8 assay; format: functional, cell-based; settings: SMMC-7721, 72 h
SMMC-7721 [3] = assay: Antitumor activity against human SMMC7721 cells xenografted in nude mouse assessed as tumor volume at 60 mg/kg, po administered daily for 6 days and measured on day 6 (reference value: 1990.2 +/- 179.2 mm3); format: functional
SMMC-7721 [4] = assay: Antitumor activity against human SMMC7721 cells xenografted in nude mouse assessed as tumor volume at 60 mg/kg, po administered daily for 6 days and measured on day 9 (reference value: 3005.8 +/- 225.3 mm3); format: functional
SMMC-7721 [5] = assay: Antitumor activity against human SMMC7721 cells xenografted in nude mouse assessed as tumor growth inhibition at 60 mg/kg, po administered daily for 6 days and measured on day 6 relative to control; format: functional; settings: SMMC-7721, po, 144 h, read-out: TGI
SMMC-7721 [6] = assay: Antitumor activity against human SMMC7721 cells xenografted in nude mouse assessed as tumor growth inhibition at 60 mg/kg, po administered daily for 6 days and measured on day 9 relative to control; format: functional; settings: SMMC-7721, po, read-out: TGI
[7] = Toxicity in nude mouse xenografted with human SMMC7721 cells assessed as mortality at 60 mg/kg, po administered daily for 6 days; format: organism-based; settings: in vivo, 144 h
[8] = Toxicity in nude mouse xenografted with human SMMC7721 cells assessed as side effect at 60 mg/kg, po administered daily for 6 days; format: organism-based; settings: in vivo, 144 h
[9] = Toxicity in nude mouse xenografted with human SMMC7721 cells assessed as change in body weight at 60 mg/kg, po administered daily for 6 days and measured every 3 days; format: organism-based; settings: in vivo

Chain of Vascular endothelial growth factor receptor 2 (P35968 whole entry, the tested form may be a part): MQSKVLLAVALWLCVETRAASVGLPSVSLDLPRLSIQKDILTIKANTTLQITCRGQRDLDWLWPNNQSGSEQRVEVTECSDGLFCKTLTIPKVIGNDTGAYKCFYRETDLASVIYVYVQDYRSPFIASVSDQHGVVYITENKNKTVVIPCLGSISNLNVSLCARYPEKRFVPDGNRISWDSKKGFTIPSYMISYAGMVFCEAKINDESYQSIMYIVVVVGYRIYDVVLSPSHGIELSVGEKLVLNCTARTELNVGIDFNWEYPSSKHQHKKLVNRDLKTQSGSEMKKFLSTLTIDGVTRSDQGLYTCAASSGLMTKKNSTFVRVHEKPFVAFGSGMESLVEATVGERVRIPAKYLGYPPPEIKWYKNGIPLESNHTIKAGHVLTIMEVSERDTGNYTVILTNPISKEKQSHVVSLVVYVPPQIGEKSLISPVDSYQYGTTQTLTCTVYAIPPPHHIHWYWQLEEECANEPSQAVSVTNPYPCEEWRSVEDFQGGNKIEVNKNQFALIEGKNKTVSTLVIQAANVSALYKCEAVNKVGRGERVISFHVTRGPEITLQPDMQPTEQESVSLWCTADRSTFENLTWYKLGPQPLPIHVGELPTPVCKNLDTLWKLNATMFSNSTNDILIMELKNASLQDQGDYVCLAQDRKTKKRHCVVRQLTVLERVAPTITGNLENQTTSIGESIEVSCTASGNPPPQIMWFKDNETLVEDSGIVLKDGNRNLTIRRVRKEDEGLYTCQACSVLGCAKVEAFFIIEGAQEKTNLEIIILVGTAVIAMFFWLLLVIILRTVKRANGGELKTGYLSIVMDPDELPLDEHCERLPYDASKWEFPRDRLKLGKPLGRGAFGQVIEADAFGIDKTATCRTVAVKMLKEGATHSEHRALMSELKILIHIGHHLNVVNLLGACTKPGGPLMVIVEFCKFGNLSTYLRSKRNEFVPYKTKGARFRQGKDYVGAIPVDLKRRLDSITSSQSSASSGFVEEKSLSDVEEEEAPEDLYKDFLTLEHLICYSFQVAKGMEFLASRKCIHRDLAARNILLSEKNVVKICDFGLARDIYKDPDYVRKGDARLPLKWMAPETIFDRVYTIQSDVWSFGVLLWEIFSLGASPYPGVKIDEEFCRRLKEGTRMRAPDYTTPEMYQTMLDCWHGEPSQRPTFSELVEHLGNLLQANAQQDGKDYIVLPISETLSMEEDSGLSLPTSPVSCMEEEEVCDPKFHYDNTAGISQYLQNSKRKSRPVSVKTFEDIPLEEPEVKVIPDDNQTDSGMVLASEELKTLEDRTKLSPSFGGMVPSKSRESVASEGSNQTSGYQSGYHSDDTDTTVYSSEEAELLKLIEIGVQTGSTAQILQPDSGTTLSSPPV

Compound	IC50 (HEK293) [nM]	IC50 (L02) [nM]	IC50 (HUVEC) [nM]	IC50 [1] [nM]	also measured
CC(C)Oc1cc2ncnc(Oc3ccc(NC(=O)Nc4cc(C(F)(F)F)ccc4F)cc3)c2c2c1OCCO2	3560	5180	4.2		
O=C(Nc1ccc(Oc2ncnc3cc(OCCCN4CCOCC4)c4c(c23)OCCO4)cc1)Nc1cc(C(F)(F)F)ccc1F	994	1010	2.3	1.5	
O=C(Nc1ccc(Oc2ncnc3cc(OCCCN4CCOCC4)c4c(c23)OCCO4)cc1F)Nc1cc(C(F)(F)F)ccc1F	1160	1510	4.7		
COc1cc2ncnc(Oc3ccc(NC(=O)Nc4cc(C(F)(F)F)ccc4F)cc3)c2c2c1OCCO2	2880	2190	1.7	1.5	
COc1cc2ncnc(Oc3ccc(NC(=O)Nc4ccc(Cl)c(C(F)(F)F)c4)cc3)c2c2c1OCCO2	7540	3860	1.2	2.4	IC50 (SMMC-7721 [2]): 376 nM; Activity (SMMC-7721 [3]): 14 mm3; Activity (SMMC-7721 [4]): 63.3 mm3; inhibition in vivo at 60 mg/kg (SMMC-7721 [5]): 133%; inhibition in vivo at 60 mg/kg (SMMC-7721 [6]): 118%; Activity [7]: Non-Toxic; Activity [8]: Non-Toxic; Activity [9]: Toxic
O=C(Nc1ccc(Oc2ncnc3cc(OCCCN4CCOCC4)c4c(c23)OCCO4)c(F)c1)Nc1cc(C(F)(F)F)ccc1F	700	801	1.5	3.4	
COCCOc1cc2ncnc(Oc3ccc(NC(=O)Nc4cc(C(F)(F)F)ccc4F)cc3)c2c2c1OCCO2	894	1160	1.1	1.7	
COc1cccc(NC(=O)Nc2ccc(Oc3ncnc4cc(OC)c5c(c34)OCCO5)cc2)c1	> 25000	34300	3		
O=C(Nc1cc(C(F)(F)F)ccc1F)Nc1ccc(Oc2ncnc3cc(OCCCN4CCOCC4)c4c(c23)OCCO4)cc1Cl	5180	5980	4		
COc1cc2nccc(Oc3ccc(NC(=O)NC4CC4)c(Cl)c3)c2cc1C(N)=O [LENVATINIB]			3		
